{
  "source": "patent US7067500B2",
  "about": "“Betaines as adjuvants to susceptibility testing and antimicrobial therapy” (priority 1997, dated 2006)",
  "key": {"gram negative bacteria": {"tested_on": "gram negative bacteria", "assay": "Antibiotic sensitivities of BACTEC 12B/PANTA contaminants (MicroScan panels)", "format": "cell-based", "conditions": "ceftazidime at 8 μg/ml; contaminants of CB-18 processed specimens on 12B/PANTA", "source_text": "Preliminary studies designed to assess the nature of contaminants breaking through the BACTEC 12B liquid media supplemented with PANTA used discarded respiratory specimens (n=277) from Quest Diagnostics—Baltimore. (NOTE: the BACTEC 12B liquid culture system is one of the standard methods in the art for culturing mycobacteria, and PANTA is an antimicobial supplement containing polymyxin B, azlocillin, nalidixic acid, trimethoprim, and amphotericin B: this culture system is referred to herein as “12B/PANTA” (Becton Dickinson, Cockeysville, Md.)) Specimens were collected and processed with CB-18 according to the procedure above. Approximately 400–500 μl of each sediment was planted on 12B/PANTA. All contaminants were identified by morphology and/or gram stain and then differentiated as either oxidase/catalase, positive or negative. Contaminants were then speciated, and antibiotic sensitivities determined, using MicroScan® panels (Dade, West Sacramento, Calif.)."}, "[1]": {"tested_on": "M. tuberculosis isolates ATCC 27294, 571/573-BAL, 061-TBR, 52–96-BOL, and 57–96-BOL", "assay": "Antibiotic screen with additional antibiotics in the presence and absence of CB-18", "format": "cell-based, Mycobacterium tuberculosis", "conditions": "ceftazidime alone (absence of PANTA) at 16 μg/ml final", "description": "The experimental design of FIG. 16 was also used to examine the breadth of the CB-18 effect with respect to other, non-β-lactam antibiotics. In these experiments antibiotics (Sigma, St. Louis, Mo.) were manufactured as stock solutions in water or buffer and then diluted with reconstitution fluid and added to the culture bottles prior to inoculation. Nystatin (100 μg/ml final), polymixin B (300 units final), erthromycin (4 μg/ml final), oleandomycin (2 μg/ml final), penicillin G (8 μg/ml final), nalidixic acid (30 μg/ml final), lincomycin (2 μg/ml final), ceftriaxone (32 μg/ml final), and ceftazidime (16 μg/ml final) (ceftazidime was manufactured in 10% sodium bicarbonate) were tested on ATCC 27294, 571/573-BAL, 061-TBR, 52–96-BOL, and 57–96-BOL. All experiments used R.F. and P-caz as controls, and all bottles wherein CB-18 was added used a final concentration of 17 μg/ml. FIG. 28 presents the results of the 571/573-BAL isolate with erythromycin and ceftriaxone. FIG. 29 presents the results of the 061-TBR isolate with polymyxin B, oleandomycin, lincomycin, naldixic acid, penicillin G, and ceftriaxone. FIG. 30 presents the results of the 57–96-BOL isolate with naldixic acid, penicillin G, ceftazidime and ceftriaxone."}},
  "data": [
    {"smiles": "CC(C)(O/N=C(\\C(=O)N[C@@H]1C(=O)N2C(C(=O)[O-])=C(C[n+]3ccccc3)CS[C@H]12)c1csc(N)n1)C(=O)O", "note": "[ceftazidime]", "values": [
      {"measurement": "gram negative bacteria sensitive to ceftazidime", "setting": "gram negative bacteria", "value": "40 of the 48"},
      {"measurement": "effect on isolates relative to other antibiotics tested", "setting": "[1]", "value": "one of the least innocuous compounds"}
    ]}
  ]
}
